From US4469786A (priority 1981, dated 1984)

Columns and labels:
DNA [1] = conditions: cited from earlier work
[2] = system: single-stranded .phi.105 DNA
[3] = system: Salmonella tester strains; conditions: literature (McCann, Bartsch, Glatt); cited from earlier work
[4] = system: replicative-form .phi.105DII:6C DNA; experiment: gene linkage disruption in the marker rescue assay with .phi.105DII:6C DNA; conditions: PO, same conditions as Example 5 (25 to 100 mM)
DNA [5] = conditions: transformation-based assay of Phillips et al.; cited from earlier work

Structure (SMILES): CC(=O)ON(C(C)=O)c1ccc2c(c1)Cc1ccccc1-2 [AAAF, N-acetyl-N-acetoxy-2-aminofluorine]
- lesion in DNA / reactivity with DNA (DNA [1]): potent frameshift mutagen which forms two different guanine adducts
- frequency of clear PFU, earliest sample [2]: there appeared to be an increase in the frequency of clear PFU
- marker rescue activity, subsequent samples [2]: very rapid and extensive loss of marker rescue activity
- numbers of clear-plaque mutants generated ([2]; 35 mM AAAF, 37° C., 1-9 min., Hcr^+ recipient GB68, FIG. 6): increased with length of AAAF treatment
- frequency of clear-plaque mutants, subsequent samples ([2]; 35 mM AAAF, 37° C., subsequent samples, Hcr^- recipient GB7075): concomitant decrease in the frequency of clear-plaque mutants

Structure (SMILES): O=CCCl [CAA, chloroacetaldehyde]
- lesion in DNA / reactivity with DNA (DNA [1]): reacts with adenines and cytosines to form imidazonucleoside derivatives

Structure (SMILES): ClC(Cl)(Cl)Cl [CCl4]
- mutagenicity in the Ames assay [3]: not mutagenic in the Ames assay

Structure (SMILES): ClC(Cl)Cl [CHCl3]
- mutagenicity in the Ames assay [3]: not mutagenic in the Ames assay

Structure (SMILES): ClC(Cl)=C(c1ccc(Cl)cc1)c1ccc(Cl)cc1 [DDE]
- mutagenicity in the Ames assay [3]: not mutagenic in the Ames assay

Structure (SMILES): NO [HA, hydroxylamine]
- lesion in DNA / reactivity with DNA (DNA [1]): induces predominantly guanine-cytosine to adenine-thymine transitions
- marker rescue activity [2]: loss of marker rescue activity
- frequency of clear PFU/total PFU (capacity of treated DNA to generate clear-plaque mutants) ([2]; 1M HA, single-stranded DNA, 45° C., 0-60 minutes, GB68, FIG. 2): A time dependent increase in the capacity of the treated DNA to generate clear-plaque mutants

Structure (SMILES): CC1CO1 (centres unmarked) [PO, propylene oxide]
- disruption of linkage between J^+ allele and DII:6C mutation [4]: no significant disruption of linkage
- lesion in DNA / reactivity with DNA (DNA [1]): reacts with guanine and adenine residues but has also been claimed to react with the phosphodiester backbone of DNA producing strand scissions
- frequency of clear PFU at the highest concentration [2]: a decrease in the frequency of clear PFU
- marker rescue activity [2]: No consistent decrease in marker rescue activity
- significance (p) of increase in frequency of clear PFU [2]: < 0.001
- strand scission (DNA [5]): PO-induced strand scission which was observed

Structure (SMILES): ClC1=C(Cl)[C@]2(Cl)[C@@H]3[C@@H]4C[C@@H]([C@H]5O[C@@H]45)[C@@H]3[C@@]1(Cl)C2(Cl)Cl [dieldrin]
- mutagenicity in the Ames assay [3]: not mutagenic in the Ames assay

Structure (SMILES): CC/C(=C(/CC)c1ccc(O)cc1)c1ccc(O)cc1 [diethylstilbestrol]
- mutagenicity in the Ames assay [3]: not mutagenic in the Ames assay
